Numbered stars: 1 amine (or outer) side, 2 acyl side, 3 side chain; on linkers, the order of the positions; unused ones are H or OH. Square brackets hold non-standard residues; d marks the D form. Peptide text beside a SMILES is read from it. * marks the point of attachment. DOTA(Lu)NH(CH2)6NHCOCH2 = O=C(CN1CCN2CCN3CCN(CC1)CC(=O)[O][Lu]([O]C(=O)C2)[O]C(=O)C3)NCCCCCCNC(=O)C*; X6 = O=C(CN1CCN2CCN3CCN(CC1)CC(=O)[O][Lu]([O]C(=O)C2)[O]C(=O)C3)NCCOCCOCCOCCNC(=O)C*; DOTA(Lu) = O=C1CN2CCN3CCN(CC(=O)*)CCN(CC2)CC(=O)[O][Lu]([O]1)[O]C(=O)C3; Ala(piperidin-4-yl) = O=C([C@H](CC1CCN([*:3])CC1)N[*:1])[*:2]; dTrp(βS-Me) = C[C@@H](c1c[nH]c2ccccc12)[C@@H](N)C(=O)O; Tyr(3,5-F2) = N[C@@H](Cc1cc(F)c(O)c(F)c1)C(=O)O; dNMeW = CN[C@H](Cc1c[nH]c2ccccc12)C(=O)O; NMehCys = CN[C@@H](CCS)C(=O)O; NMeK = CN[C@@H](CCCCN)C(=O)O
molecular target: SSTR2 (Homo sapiens, UniProt P30874); experiment: SSTR binding affinity by radioligand binding competition assay ([125I]-Tyr11-Somatostatin, membrane extracts); settings: radioligand competition, [125I]-Tyr11-Somatostatin 0.1 nM, membrane extracts; Ki from IC50 by Cheng Prusoff; read-out: SSTR2 Ki
Sequence (P30874 whole entry): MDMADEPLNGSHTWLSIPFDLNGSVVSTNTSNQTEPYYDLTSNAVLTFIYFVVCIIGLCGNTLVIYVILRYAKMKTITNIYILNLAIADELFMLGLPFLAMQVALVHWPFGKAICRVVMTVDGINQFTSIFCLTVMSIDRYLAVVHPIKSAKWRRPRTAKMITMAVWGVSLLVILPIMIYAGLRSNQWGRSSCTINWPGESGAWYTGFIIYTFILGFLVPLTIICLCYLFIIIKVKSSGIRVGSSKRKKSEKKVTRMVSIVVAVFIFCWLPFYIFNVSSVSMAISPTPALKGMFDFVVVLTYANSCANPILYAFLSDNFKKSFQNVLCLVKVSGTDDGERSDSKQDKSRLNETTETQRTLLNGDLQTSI

SMILES	Ki [nM]
C[C@@H](O)[C@@H]1NC(=O)[C@H](CCCCN)NC(=O)[C@@H](Cc2c[nH]c3ccccc23)NC(=O)[C@H](Cc2ccc(O)cc2)NC(=O)[C@H](CCSCC(=O)NCCCC[C@@H](NC(=O)CN2CCN3CCN4CCN(CC2)CC(=O)[O][Lu]([O]C(=O)C3)[O]C(=O)C4)C(=O)O)N(C)C(=O)[C@H](Cc2ccccc2)NC1=O [RB-0005278]	1 to 3.33
C[C@@H](O)[C@@H]1NC(=O)[C@H](CCCCN)NC(=O)[C@@H](Cc2c[nH]c3ccccc23)NC(=O)[C@H](Cc2ccc(O)cc2)NC(=O)[C@H](CCSCC(=O)NCCOCCOCCOCCNC(=O)CN2CCN3CCN4CCN(CC2)CC(=O)[O][Lu]([O]C(=O)C3)[O]C(=O)C4)N(C)C(=O)[C@H](Cc2ccccc2)NC1=O [RB-0005284]	< 1
C[C@@H](O)[C@@H]1NC(=O)[C@H](CCCCN)NC(=O)[C@@H](Cc2c[nH]c3ccccc23)NC(=O)[C@H](Cc2ccc(O)cc2)NC(=O)[C@H](CCSCC(=O)NCCOCCOCCOCCNC(=O)CN2CCN3CCN4CCN(CC2)CC(=O)[O][Lu]([O]C(=O)C3)[O]C(=O)C4)N(C)C(=O)CNC1=O [RB-0005286] (cyclo(G[NMehCys](X6)Y[dW]KT))	10 to 33.3
C[C@@H](O)[C@@H]1NC(=O)[C@H](CCCCN)NC(=O)[C@@H](Cc2c[nH]c3ccccc23)N(C)C(=O)[C@H](Cc2ccc(O)cc2)NC(=O)[C@H](CCSCC(=O)NCCCCCCNC(=O)CN2CCN3CCN4CCN(CC2)CC(=O)[O][Lu]([O]C(=O)C3)[O]C(=O)C4)N(C)C(=O)[C@H](Cc2ccccc2)NC1=O [RB-0005330] (cyclo(F[NMehCys](DOTA(Lu)NH(CH2)6NHCOCH2)Y[dNMeW]KT))	< 1
C[C@@H](O)[C@@H]1NC(=O)[C@H](CCCCN)NC(=O)[C@@H](Cc2c[nH]c3ccccc23)NC(=O)CNC(=O)[C@H](CCSCC(=O)NCCCCCCNC(=O)CN2CCN3CCN4CCN(CC2)CC(=O)[O][Lu]([O]C(=O)C3)[O]C(=O)C4)N(C)C(=O)[C@H](Cc2ccccc2)NC1=O [RB-0005694] (cyclo(F[NMehCys](DOTA(Lu)NH(CH2)6NHCOCH2)G[dW]KT))	1 to 3.33
C[C@@H]1NC(=O)[C@H](CCSCC(=O)NCCCCCCNC(=O)CN2CCN3CCN4CCN(CC2)CC(=O)[O][Lu]([O]C(=O)C3)[O]C(=O)C4)N(C)C(=O)[C@H](Cc2ccccc2)NC(=O)[C@H]([C@@H](C)O)NC(=O)[C@H](CCCCN)NC(=O)[C@@H](Cc2c[nH]c3ccccc23)NC1=O [RB-0005696] (cyclo(A[dW]KTF[NMehCys](DOTA(Lu)NH(CH2)6NHCOCH2)))	10 to 33.3
C[C@@H](O)[C@@H]1NC(=O)[C@H](CCCCN)NC(=O)[C@@H](Cc2c[nH]c3ccccc23)NC(=O)[C@H](Cc2ccc(O)cc2)NC(=O)[C@H](CCNC(=O)CCCCCNC(=O)CN2CCN3CCN4CCN(CC2)CC(=O)[O][Lu]([O]C(=O)C3)[O]C(=O)C4)N(C)C(=O)[C@H](Cc2ccccc2)NC1=O [RB-0005717]	10 to 33.3
C[C@@H](O)[C@@H]1NC(=O)[C@H](CCCCN)NC(=O)[C@@H](Cc2c[nH]c3ccccc23)NC(=O)[C@H](Cc2ccc(O)cc2)NC(=O)[C@H](CNC(=O)CCCCCNC(=O)CN2CCN3CCN4CCN(CC2)CC(=O)[O][Lu]([O]C(=O)C3)[O]C(=O)C4)N(C)C(=O)[C@H](Cc2ccccc2)NC1=O [RB-0005728]	3.33 to 10
C[C@@H](O)[C@@H]1NC(=O)[C@H](CCCCN)NC(=O)[C@@H](Cc2c[nH]c3ccccc23)NC(=O)[C@H](Cc2ccc(O)cc2)NC(=O)[C@H](CNC(=O)[C@H](CC(=O)O)NC(=O)CCCCCNC(=O)CN2CCN3CCN4CCN(CC2)CC(=O)[O][Lu]([O]C(=O)C3)[O]C(=O)C4)N(C)C(=O)[C@H](Cc2ccccc2)NC1=O [RB-0005730]	< 1
C[C@@H](O)[C@@H]1NC(=O)[C@H](CCCCN)NC(=O)[C@@H](Cc2c[nH]c3ccccc23)NC(=O)[C@H](Cc2ccc(O)cc2)NC(=O)[C@H](CNC(=O)C[C@H](NC(=O)CCCCCNC(=O)CN2CCN3CCN4CCN(CC2)CC(=O)[O][Lu]([O]C(=O)C3)[O]C(=O)C4)C(=O)O)N(C)C(=O)[C@H](Cc2ccccc2)NC1=O [RB-0005732]	33.3 to 100
C[C@@H](O)[C@@H]1NC(=O)[C@H](CCCCN)NC(=O)[C@@H](Cc2c[nH]c3ccccc23)NC(=O)[C@H](Cc2ccc(O)cc2)NC(=O)[C@H](CNC(=O)[C@@H](CC(=O)O)NC(=O)CCCCCNC(=O)CN2CCN3CCN4CCN(CC2)CC(=O)[O][Lu]([O]C(=O)C3)[O]C(=O)C4)N(C)C(=O)[C@H](Cc2ccccc2)NC1=O [RB-0005734]	1 to 3.33
C[C@@H](O)[C@@H]1NC(=O)[C@H](CCCCN)NC(=O)[C@@H](Cc2c[nH]c3ccccc23)NC(=O)[C@H](Cc2ccc(O)cc2)NC(=O)[C@H](CNC(=O)C[C@@H](NC(=O)CCCCCNC(=O)CN2CCN3CCN4CCN(CC2)CC(=O)[O][Lu]([O]C(=O)C3)[O]C(=O)C4)C(=O)O)N(C)C(=O)[C@H](Cc2ccccc2)NC1=O [RB-0005736]	3.33 to 10
C[C@@H](O)[C@@H]1NC(=O)[C@H](CCCCN)NC(=O)[C@@H](Cc2c[nH]c3ccccc23)NC(=O)[C@H](Cc2ccc(O)cc2)NC(=O)[C@H](CCSCC(=O)NCCOCCOCCOCCNC(=O)CN2CCN3CCN4CCN(CC2)CC(=O)[O][Lu]([O]C(=O)C3)[O]C(=O)C4)N(C)C(=O)[C@H](COc2ccccc2)NC1=O [RB-0005738]	< 1
C[C@@H](O)[C@@H]1NC(=O)[C@H](CCCCN)NC(=O)[C@@H](Cc2c[nH]c3ccccc23)NC(=O)[C@H](Cc2cc(F)c(O)c(F)c2)NC(=O)[C@H](CCSCC(=O)NCCCCCCNC(=O)CN2CCN3CCN4CCN(CC2)CC(=O)[O][Lu]([O]C(=O)C3)[O]C(=O)C4)N(C)C(=O)[C@H](Cc2ccccc2)NC1=O [RB-0005740] (cyclo(F[NMehCys](DOTA(Lu)NH(CH2)6NHCOCH2)[Tyr(3,5-F2)][dW]KT))	< 1
C[C@@H]1NC(=O)[C@H](CCCCN)NC(=O)[C@@H](Cc2c[nH]c3ccccc23)NC(=O)[C@H](Cc2ccc(O)cc2)NC(=O)[C@H](CCSCC(=O)NCCCCCCNC(=O)CN2CCN3CCN4CCN(CC2)CC(=O)[O][Lu]([O]C(=O)C3)[O]C(=O)C4)N(C)C(=O)[C@H](Cc2ccccc2)NC1=O [RB-0005744] (cyclo(AF[NMehCys](DOTA(Lu)NH(CH2)6NHCOCH2)Y[dW]K))	< 1
C[C@@H](O)[C@@H]1NC(=O)[C@H](CC2CCNCC2)NC(=O)[C@@H]([C@@H](C)c2c[nH]c3ccccc23)NC(=O)[C@H](Cc2ccc(O)cc2)NC(=O)[C@H](CCCCNC(=O)CN2CCN3CCN4CCN(CC2)CC(=O)[O][Lu]([O]C(=O)C3)[O]C(=O)C4)N(C)C(=O)[C@H](Cc2ccccc2)NC1=O [RB-0005797] (cyclo(F[NMeK](DOTA(Lu))Y[dTrp(βS-Me)][Ala(piperidin-4-yl)]T))	< 1
C[C@@H]1NC(=O)[C@H]([C@@H](C)O)NC(=O)[C@H](CC2CCNCC2)NC(=O)[C@@H]([C@@H](C)c2c[nH]c3ccccc23)NC(=O)[C@H](Cc2ccc(O)cc2)NC(=O)[C@H](CCSCC(=O)NCCCCCCNC(=O)CN2CCN3CCN4CCN(CC2)CC(=O)[O][Lu]([O]C(=O)C3)[O]C(=O)C4)N(C)C1=O [RB-0005807] (cyclo(A[NMehCys](DOTA(Lu)NH(CH2)6NHCOCH2)Y[dTrp(βS-Me)][Ala(piperidin-4-yl)]T))	< 1

Reference: patent US20250222146A1, “Radiopharmaceuticals Targeting Somatostatin Receptor 2 and Uses Thereof” (RayzeBio, Inc., priority 2023, published 2025)
